Literature values, collected in patent US20230233494A1, “BIOAVAILABLE SUGAR-BASED DICLOFENAC FORMULATIONS” (APR Applied Pharma Research SA, priority 2020, published 2023).
Structures can show the parent of a compound that is named as a salt.

Conditions: at acidic pH

Solubility: sparingly soluble
Compound: O=C(O)Cc1ccccc1Nc1c(Cl)cccc1Cl [diclofenac potassium, [2-(2,6-dichlorophenyl)amino]benzeneacetate, potassium salt]
